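Exposure lasted 48 hours, with cells grown in 96-well plates and compounds tested at five concentrations. GI50 is the concentration that inhibits growth by half.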 Active and inactive are the calls of the source. Rule as the data show it: active = GI50 up to about 1.1 µM and inactive = higher.
Experiments:
Assay in all cases: inhibition of tumour cell growth, NCI panel, 48 h
SR = tested on: SR
NCI-H460 = tested on: NCI-H460
NCI-H226 = tested on: NCI-H226
TK-10 = tested on: TK-10
DU-145 = tested on: DU-145
U-251 = tested on: U-251
MCF7 = tested on: MCF7
CCRF-CEM = tested on: CCRF-CEM
SK-MEL-5 = tested on: SK-MEL-5
SF-268 = tested on: SF-268
NCI-H522 = tested on: NCI-H522
NCI/ADR-RES = tested on: NCI/ADR-RES
HCC 2998 = tested on: HCC 2998
UO-31 = tested on: UO-31
A498 = tested on: A498
OVCAR-3 = tested on: OVCAR-3
UACC-257 = tested on: UACC-257
T47D = tested on: T47D
HT-29 = tested on: HT-29
Hs-578T = tested on: Hs-578T
MOLT-4 = tested on: MOLT-4
K562 = tested on: K562
ACHN = tested on: ACHN
RPMI-8226 = tested on: RPMI-8226
MDA-N = tested on: MDA-N
786-0 = tested on: 786-0
SF-539 = tested on: SF-539
OVCAR-8 = tested on: OVCAR-8
OVCAR-4 = tested on: OVCAR-4
HCT-116 = tested on: HCT-116
Malme-3M = tested on: Malme-3M
SK-MEL-2 = tested on: SK-MEL-2
UACC-62 = tested on: UACC-62
SNB-75 = tested on: SNB-75
BT-549 = tested on: BT-549
RXF 393 = tested on: RXF 393
HL-60 = tested on: HL-60
M14 = tested on: M14
COLO 205 = tested on: COLO 205
OVCAR-5 = tested on: OVCAR-5
SK-OV-3 = tested on: SK-OV-3
MDA-MB-435 = tested on: MDA-MB-435
A549 = tested on: A549
HOP-62 = tested on: HOP-62
SN12C = tested on: SN12C
IGROV-1 = tested on: IGROV-1
PC-3 = tested on: PC-3
SF-295 = tested on: SF-295
NCI-H23 = tested on: NCI-H23
EKVX = tested on: EKVX
SK-MEL-28 = tested on: SK-MEL-28
KM12 = tested on: KM12
MDA-MB-231 = tested on: MDA-MB-231
CAKI-1 = tested on: CAKI-1
HOP-92 = tested on: HOP-92
HCT-15 = tested on: HCT-15
SW-620 = tested on: SW-620
SNB-19 = tested on: SNB-19
LOX IMVI = tested on: LOX IMVI

CCO/C=N/C1=C(C#N)C(c2ccc(Cl)cc2)c2c(-c3ccccc3)nn(-c3ccccc3)c2O1 (centres undefined)
GI50 (SR): 5.5 µM (inactive) | GI50 (NCI-H460): 7.69 µM (inactive) | GI50 (NCI-H226): 15.7 µM (inactive) | GI50 (TK-10): 7.19 µM (inactive) | GI50 (DU-145): 16 µM (inactive) | GI50 (U-251): 8.55 µM (inactive) | GI50 (MCF7): 3.81 µM (inactive) | GI50 (CCRF-CEM): 5.73 µM (inactive) | GI50 (SK-MEL-5): > 10 µM (inactive) | GI50 (SF-268): 7.87 µM (inactive) | GI50 (NCI-H522): 3.77 µM (inactive) | GI50 (NCI/ADR-RES): 9.86 µM (inactive) | GI50 (HCC 2998): 7.16 µM (inactive) | GI50 (UO-31): 11.6 µM (inactive) | GI50 (A498): 13.4 µM (inactive) | GI50 (OVCAR-3): 3.72 µM (inactive) | GI50 (UACC-257): 11.8 µM (inactive) | GI50 (T47D): > 61.9 µM (inactive) | GI50 (HT-29): 7.53 µM (inactive) | GI50 (Hs-578T): 6.12 µM (inactive) | GI50 (MOLT-4): 6.93 µM (inactive) | GI50 (K562): 7.78 µM (inactive) | GI50 (ACHN): 8.51 µM (inactive) | GI50 (RPMI-8226): 6.53 µM (inactive) | GI50 (MDA-N): 14.7 µM (inactive) | GI50 (786-0): 10.2 µM (inactive) | GI50 (SF-539): 6.14 µM (inactive) | GI50 (OVCAR-8): 14 µM (inactive) | GI50 (OVCAR-4): 11.4 µM (inactive) | GI50 (HCT-116): 7.5 µM (inactive) | GI50 (Malme-3M): 12.3 µM (inactive) | GI50 (SK-MEL-2): 11.7 µM (inactive) | GI50 (UACC-62): 12.2 µM (inactive) | GI50 (SNB-75): 6.81 µM (inactive) | GI50 (BT-549): 14.1 µM (inactive) | GI50 (RXF 393): 7.03 µM (inactive) | GI50 (HL-60): 5.66 µM (inactive) | GI50 (M14): 4.58 µM (inactive) | GI50 (COLO 205): 5.27 µM (inactive) | GI50 (OVCAR-5): 23.7 µM (inactive) | GI50 (SK-OV-3): 14.3 µM (inactive) | GI50 (MDA-MB-435): 12.4 µM (inactive) | GI50 (A549): 5.73 µM (inactive) | GI50 (HOP-62): 19.1 µM (inactive) | GI50 (SN12C): 12.2 µM (inactive) | GI50 (IGROV-1): 8.93 µM (inactive) | GI50 (PC-3): 4.28 µM (inactive) | GI50 (SF-295): 7.43 µM (inactive) | GI50 (NCI-H23): 5.15 µM (inactive) | GI50 (EKVX): 13.9 µM (inactive) | GI50 (SK-MEL-28): 11.7 µM (inactive) | GI50 (KM12): 5.09 µM (inactive) | GI50 (MDA-MB-231): 21.6 µM (inactive) | GI50 (CAKI-1): 15.7 µM (inactive) | GI50 (HOP-92): 5.42 µM (inactive) | GI50 (HCT-15): 5.43 µM | GI50 (SW-620): 12.9 µM (inactive) | GI50 (SNB-19): 12.7 µM (inactive) | GI50 (LOX IMVI): 9.62 µM (inactive)

From ChEMBL document CHEMBL1201862, “PubChem BioAssay data set” (2004)
